Drawing on publication PMC9030254, “Target Hopping from Protein Kinases to PXR: Identification of Small-Molecule Protein Kinase Inhibitors as Selective Modulators of Pregnane X Receptor from TüKIC Library” (Cells, 2022), this text covers Residual activity for two compounds.

Common to all, as to assay: Kinase profiling
What all share (type): biochemical

The target in one test is T1, AKT2 (Homo sapiens, UniProt P31751).
T1 construct: purchased ProQinase (Freiburg, Germany)
How it is done:
(§1) The analysis was performed by ProQinase (Freiburg, Germany).

The target of another test is T2, AXL (Homo sapiens, UniProt P30530).
T2 construct: purchased ProQinase (Freiburg, Germany)
T2 sequence (P30530 26-894): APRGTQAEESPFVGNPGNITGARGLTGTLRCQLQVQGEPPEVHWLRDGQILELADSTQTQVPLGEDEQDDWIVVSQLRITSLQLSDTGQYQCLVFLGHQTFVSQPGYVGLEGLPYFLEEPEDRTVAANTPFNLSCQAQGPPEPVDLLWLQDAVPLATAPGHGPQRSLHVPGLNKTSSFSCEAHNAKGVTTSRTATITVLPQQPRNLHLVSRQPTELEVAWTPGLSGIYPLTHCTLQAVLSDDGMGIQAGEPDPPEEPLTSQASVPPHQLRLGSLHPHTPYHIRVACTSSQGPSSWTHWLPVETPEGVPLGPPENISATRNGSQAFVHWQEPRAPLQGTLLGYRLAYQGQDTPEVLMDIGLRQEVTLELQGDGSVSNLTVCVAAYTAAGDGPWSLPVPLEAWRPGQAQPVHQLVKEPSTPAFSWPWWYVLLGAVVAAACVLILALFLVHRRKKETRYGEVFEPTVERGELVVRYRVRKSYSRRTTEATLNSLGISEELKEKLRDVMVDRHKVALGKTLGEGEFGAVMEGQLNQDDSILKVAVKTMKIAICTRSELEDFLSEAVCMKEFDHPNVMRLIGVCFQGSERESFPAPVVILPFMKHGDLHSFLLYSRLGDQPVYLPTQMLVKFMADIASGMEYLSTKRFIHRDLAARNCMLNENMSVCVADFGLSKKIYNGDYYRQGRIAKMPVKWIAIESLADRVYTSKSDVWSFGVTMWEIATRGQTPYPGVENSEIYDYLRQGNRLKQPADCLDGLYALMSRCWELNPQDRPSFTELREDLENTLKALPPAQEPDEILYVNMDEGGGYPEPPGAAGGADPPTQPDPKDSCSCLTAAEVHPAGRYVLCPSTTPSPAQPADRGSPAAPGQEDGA
How it is done:
as §1

In another test the target is T3, AuroraA (Homo sapiens, UniProt O14965).
T3 construct: purchased ProQinase (Freiburg, Germany)
T3 sequence (O14965 1-403): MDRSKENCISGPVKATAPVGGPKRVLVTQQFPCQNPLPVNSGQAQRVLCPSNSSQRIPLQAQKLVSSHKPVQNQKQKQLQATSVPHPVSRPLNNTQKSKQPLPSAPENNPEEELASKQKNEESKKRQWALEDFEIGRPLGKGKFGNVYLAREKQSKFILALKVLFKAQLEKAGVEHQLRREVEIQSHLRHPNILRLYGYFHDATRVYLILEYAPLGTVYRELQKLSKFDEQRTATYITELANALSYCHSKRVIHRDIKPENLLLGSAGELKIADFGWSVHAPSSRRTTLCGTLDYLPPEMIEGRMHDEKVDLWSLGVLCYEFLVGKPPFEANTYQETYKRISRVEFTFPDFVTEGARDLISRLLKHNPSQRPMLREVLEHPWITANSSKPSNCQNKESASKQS
The method, then:
as §1

Another test concerns the target T4, CDK9/CycT1 (Homo sapiens, UniProt P50750).
T4 construct: purchased ProQinase (Freiburg, Germany)
How it is done: as §1

A further test deals with T5, CSF1R (Homo sapiens, UniProt P07333).
T5 construct: purchased ProQinase (Freiburg, Germany)
T5 sequence (P07333 20-972): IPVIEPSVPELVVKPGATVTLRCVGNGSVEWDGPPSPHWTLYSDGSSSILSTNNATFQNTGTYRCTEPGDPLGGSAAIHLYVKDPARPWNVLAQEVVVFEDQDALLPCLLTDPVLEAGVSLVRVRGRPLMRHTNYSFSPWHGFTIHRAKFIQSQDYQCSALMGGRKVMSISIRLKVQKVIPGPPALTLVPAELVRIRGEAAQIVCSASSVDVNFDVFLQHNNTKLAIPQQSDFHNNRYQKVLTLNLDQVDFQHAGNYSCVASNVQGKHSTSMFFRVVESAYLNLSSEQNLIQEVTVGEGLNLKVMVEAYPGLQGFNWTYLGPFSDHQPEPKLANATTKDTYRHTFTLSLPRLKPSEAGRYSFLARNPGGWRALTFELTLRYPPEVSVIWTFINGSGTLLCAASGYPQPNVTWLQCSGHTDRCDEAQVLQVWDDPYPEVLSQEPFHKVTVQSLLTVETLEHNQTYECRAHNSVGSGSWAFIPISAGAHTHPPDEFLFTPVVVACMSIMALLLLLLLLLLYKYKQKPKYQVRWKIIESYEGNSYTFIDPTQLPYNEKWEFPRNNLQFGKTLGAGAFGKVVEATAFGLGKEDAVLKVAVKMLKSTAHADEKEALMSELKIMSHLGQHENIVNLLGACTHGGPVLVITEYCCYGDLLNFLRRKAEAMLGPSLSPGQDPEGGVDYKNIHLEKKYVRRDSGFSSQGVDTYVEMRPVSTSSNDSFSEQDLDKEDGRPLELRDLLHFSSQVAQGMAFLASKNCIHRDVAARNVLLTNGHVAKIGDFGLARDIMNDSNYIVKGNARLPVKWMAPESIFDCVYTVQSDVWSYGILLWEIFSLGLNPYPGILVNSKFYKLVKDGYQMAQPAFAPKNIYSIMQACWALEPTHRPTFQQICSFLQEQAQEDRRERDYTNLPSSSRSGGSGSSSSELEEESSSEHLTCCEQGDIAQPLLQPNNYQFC
How it is done: as §1

A further test addresses T6, EPHA7 (Homo sapiens, UniProt Q15375).
T6 construct: purchased ProQinase (Freiburg, Germany)
The method, then: as §1

A further test addresses T7, LIMK2 (Homo sapiens, UniProt P53671).
T7 construct: purchased ProQinase (Freiburg, Germany)
How it is done:
as §1

The next test addresses T8, MAP4K2 (Homo sapiens, UniProt Q12851).
T8 construct: purchased ProQinase (Freiburg, Germany)
T8 sequence (Q12851 1-820): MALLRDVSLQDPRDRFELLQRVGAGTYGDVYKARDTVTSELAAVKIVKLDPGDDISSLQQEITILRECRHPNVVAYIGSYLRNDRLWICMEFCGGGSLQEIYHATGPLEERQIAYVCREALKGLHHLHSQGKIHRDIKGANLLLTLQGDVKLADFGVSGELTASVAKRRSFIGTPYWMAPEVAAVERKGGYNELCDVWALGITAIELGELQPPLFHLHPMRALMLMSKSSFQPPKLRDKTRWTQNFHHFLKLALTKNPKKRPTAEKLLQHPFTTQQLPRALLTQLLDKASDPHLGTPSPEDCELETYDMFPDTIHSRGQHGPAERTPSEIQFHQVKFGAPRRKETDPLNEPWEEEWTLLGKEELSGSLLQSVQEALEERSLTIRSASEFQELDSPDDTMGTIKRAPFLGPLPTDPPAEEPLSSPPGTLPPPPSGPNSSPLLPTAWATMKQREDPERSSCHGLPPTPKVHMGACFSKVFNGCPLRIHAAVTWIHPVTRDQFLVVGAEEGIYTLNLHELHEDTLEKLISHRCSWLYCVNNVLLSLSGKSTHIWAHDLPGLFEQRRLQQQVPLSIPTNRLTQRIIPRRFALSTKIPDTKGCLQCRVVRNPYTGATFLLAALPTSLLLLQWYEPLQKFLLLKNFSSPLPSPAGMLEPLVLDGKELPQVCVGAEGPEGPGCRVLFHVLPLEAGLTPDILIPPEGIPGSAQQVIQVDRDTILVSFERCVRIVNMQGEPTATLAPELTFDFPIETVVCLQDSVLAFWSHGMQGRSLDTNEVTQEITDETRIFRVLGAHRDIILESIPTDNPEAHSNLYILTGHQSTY
The method, then: as §1

The target of another test is T9, PDGFRalpha (Homo sapiens, UniProt P16234).
T9 construct: purchased ProQinase (Freiburg, Germany)
T9 sequence (P16234 24-1089): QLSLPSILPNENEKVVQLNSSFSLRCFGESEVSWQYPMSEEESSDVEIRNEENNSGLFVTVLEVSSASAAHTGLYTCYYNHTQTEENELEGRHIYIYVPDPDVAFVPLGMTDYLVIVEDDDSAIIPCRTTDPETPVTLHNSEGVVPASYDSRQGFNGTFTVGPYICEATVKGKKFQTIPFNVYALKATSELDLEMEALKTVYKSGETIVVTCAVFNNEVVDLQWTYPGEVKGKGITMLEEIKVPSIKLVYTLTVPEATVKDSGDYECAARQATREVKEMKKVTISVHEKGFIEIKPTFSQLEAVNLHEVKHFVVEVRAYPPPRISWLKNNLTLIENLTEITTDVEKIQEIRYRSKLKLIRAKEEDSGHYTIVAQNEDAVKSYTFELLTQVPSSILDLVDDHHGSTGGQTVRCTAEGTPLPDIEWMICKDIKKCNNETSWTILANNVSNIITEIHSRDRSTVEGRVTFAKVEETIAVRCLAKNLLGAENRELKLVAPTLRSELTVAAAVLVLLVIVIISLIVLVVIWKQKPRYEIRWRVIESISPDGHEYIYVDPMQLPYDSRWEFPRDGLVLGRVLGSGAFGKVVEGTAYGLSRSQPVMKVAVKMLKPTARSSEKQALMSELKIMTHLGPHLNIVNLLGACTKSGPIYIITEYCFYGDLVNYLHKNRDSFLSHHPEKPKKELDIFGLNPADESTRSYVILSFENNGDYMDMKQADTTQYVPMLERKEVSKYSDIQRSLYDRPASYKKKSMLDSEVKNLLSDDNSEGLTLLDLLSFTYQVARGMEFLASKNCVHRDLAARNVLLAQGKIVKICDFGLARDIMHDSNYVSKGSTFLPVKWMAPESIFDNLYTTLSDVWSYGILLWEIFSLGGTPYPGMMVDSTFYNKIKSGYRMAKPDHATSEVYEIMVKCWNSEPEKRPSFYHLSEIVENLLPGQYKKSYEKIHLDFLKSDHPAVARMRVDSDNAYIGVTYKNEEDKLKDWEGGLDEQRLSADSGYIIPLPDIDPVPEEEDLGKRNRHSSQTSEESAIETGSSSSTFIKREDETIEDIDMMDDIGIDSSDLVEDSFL
How it is done: as §1

In the next test the target is T10, TRKC (Homo sapiens, UniProt Q16288).
T10 construct: purchased ProQinase (Freiburg, Germany)
T10 sequence (Q16288 32-839): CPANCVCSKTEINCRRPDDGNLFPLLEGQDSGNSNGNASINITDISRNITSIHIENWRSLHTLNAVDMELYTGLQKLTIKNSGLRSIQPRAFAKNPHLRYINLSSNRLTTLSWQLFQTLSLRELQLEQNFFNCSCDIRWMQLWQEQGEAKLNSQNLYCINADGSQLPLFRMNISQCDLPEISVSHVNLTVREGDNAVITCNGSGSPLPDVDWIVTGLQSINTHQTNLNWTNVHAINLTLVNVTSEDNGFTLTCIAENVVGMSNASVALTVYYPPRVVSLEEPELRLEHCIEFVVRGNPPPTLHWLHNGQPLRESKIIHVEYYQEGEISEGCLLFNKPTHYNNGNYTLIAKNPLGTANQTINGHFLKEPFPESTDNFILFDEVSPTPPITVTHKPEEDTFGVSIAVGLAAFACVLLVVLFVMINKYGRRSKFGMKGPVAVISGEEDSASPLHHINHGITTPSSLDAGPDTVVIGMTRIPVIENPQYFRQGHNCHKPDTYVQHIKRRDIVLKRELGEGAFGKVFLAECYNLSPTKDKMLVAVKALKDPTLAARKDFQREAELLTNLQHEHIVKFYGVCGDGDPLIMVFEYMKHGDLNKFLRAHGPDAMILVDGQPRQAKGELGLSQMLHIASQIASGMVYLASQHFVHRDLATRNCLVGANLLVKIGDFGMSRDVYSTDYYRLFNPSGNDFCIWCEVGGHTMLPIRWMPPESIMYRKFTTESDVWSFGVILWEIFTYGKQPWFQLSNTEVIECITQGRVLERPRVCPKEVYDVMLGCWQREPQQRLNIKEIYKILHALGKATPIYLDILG
The method, then:
as §1

A further test deals with T11, TTBK2 (Homo sapiens, UniProt Q6IQ55).
T11 construct: purchased ProQinase (Freiburg, Germany)
The method, then: as §1

Structures are written as SMILES.

T1 sequence (P31751 whole entry): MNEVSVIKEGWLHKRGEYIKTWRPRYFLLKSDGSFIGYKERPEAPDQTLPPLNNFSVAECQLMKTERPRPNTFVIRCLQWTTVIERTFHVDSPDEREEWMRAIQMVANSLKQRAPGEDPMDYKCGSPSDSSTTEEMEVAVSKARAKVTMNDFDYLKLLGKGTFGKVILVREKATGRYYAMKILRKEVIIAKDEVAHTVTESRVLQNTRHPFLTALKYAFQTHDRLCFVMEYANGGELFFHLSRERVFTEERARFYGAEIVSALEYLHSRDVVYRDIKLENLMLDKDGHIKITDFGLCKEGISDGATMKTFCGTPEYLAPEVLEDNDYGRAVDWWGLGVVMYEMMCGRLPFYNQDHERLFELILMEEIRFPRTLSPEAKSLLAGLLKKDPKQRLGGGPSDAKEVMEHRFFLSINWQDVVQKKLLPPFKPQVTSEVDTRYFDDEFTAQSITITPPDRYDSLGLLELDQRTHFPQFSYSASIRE
T6 sequence (Q15375 28-998): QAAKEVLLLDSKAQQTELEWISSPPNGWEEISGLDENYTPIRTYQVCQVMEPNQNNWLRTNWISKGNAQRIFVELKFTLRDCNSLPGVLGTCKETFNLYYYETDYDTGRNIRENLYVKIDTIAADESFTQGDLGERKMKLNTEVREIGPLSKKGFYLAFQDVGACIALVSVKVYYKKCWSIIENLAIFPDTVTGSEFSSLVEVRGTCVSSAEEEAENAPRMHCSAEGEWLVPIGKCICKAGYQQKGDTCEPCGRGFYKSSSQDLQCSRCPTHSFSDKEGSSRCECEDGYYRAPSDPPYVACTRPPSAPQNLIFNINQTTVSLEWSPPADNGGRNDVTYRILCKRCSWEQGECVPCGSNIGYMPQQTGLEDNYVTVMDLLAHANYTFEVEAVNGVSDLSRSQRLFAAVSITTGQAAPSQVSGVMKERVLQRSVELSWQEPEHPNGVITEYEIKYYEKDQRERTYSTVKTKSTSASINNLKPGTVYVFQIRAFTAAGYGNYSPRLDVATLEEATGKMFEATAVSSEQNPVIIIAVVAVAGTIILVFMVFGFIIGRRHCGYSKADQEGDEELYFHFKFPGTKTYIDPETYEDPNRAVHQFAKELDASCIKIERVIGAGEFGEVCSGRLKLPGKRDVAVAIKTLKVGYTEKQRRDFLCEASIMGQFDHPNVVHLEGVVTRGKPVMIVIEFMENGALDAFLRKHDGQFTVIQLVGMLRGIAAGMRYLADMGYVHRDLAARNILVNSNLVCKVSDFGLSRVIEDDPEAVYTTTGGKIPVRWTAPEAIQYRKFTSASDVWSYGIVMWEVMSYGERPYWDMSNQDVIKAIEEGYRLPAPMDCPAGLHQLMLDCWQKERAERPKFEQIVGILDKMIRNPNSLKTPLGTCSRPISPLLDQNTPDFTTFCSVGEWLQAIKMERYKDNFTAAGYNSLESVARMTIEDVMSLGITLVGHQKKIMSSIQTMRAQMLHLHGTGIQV
T7 sequence (P53671 whole entry): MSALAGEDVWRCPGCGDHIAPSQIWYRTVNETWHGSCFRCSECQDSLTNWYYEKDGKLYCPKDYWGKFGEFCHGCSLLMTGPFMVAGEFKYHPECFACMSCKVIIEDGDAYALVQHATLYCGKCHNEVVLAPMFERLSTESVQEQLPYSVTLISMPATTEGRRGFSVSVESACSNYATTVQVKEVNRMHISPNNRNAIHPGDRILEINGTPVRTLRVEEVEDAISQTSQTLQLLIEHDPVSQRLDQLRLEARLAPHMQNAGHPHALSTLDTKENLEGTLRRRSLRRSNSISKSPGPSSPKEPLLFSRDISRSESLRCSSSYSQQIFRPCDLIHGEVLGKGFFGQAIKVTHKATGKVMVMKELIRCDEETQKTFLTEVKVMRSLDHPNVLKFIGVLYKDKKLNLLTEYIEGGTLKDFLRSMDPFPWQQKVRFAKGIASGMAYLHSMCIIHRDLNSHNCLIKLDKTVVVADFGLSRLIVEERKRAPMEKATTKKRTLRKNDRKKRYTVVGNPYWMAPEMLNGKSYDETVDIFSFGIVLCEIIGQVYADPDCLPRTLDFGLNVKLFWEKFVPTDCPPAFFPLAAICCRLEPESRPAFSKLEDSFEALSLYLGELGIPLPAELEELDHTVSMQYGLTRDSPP

Regarding `O=C(Cc1ccccc1)Nc1ccc(F)c(Nc2ccc3c(c2)CCCCC3=O)c1` [Compound 100], the Residual activity is recorded as 82 % of control at AKT2 (1.0E-05 M); 92 % of control at AKT2 (1.0E-06 M); 99 % of control at AXL (1.0E-05 M); 103 % of control at AXL (1.0E-06 M); 91 % of control on AuroraA (1.0E-05 M); 96 % of control on AuroraA (1.0E-06 M). Besides, the Residual activity is listed as 89 % of control at CDK9/CycT1 (1.0E-05 M); 95 % of control on CDK9/CycT1 (1.0E-06 M); 96 % of control at CSF1R (1.0E-05 M); 100 % of control on CSF1R (1.0E-06 M); 101 % of control on EPHA7 (1.0E-05 M); 103 % of control on EPHA7 (1.0E-06 M). The Residual activity at LIMK2 (1.0E-05 M) is listed as 82 % of control; at LIMK2 (1.0E-06 M), 95 % of control; on MAP4K2 (1.0E-05 M) it was 71 % of control; on MAP4K2 (1.0E-06 M) it was 94 % of control; at PDGFRalpha (1.0E-05 M), 95 % of control; at PDGFRalpha (1.0E-06 M) it was 107 % of control. For the same compound, the Residual activity on TRKC (1.0E-05 M) is listed as 89 % of control; at TRKC (1.0E-06 M) it was 109 % of control; on TTBK2 (1.0E-05 M), 126 % of control; at TTBK2 (1.0E-06 M), 109 % of control.

On to `O=C(Nc1ccc(F)c(Nc2ccc3c(c2)CCCCC3=O)c1)c1cccc(F)c1` [Compound 109], for which the Residual activity at AKT2 (1.0E-05 M) is reported as 92 % of control; at AKT2 (1.0E-06 M) it was 92 % of control; at AXL (1.0E-05 M), 93 % of control; on AXL (1.0E-06 M), 98 % of control; on AuroraA (1.0E-05 M), 90 % of control; at AuroraA (1.0E-06 M) it was 93 % of control. Also, the Residual activity is 93 % of control on CDK9/CycT1 (1.0E-05 M); 92 % of control on CDK9/CycT1 (1.0E-06 M); 94 % of control at CSF1R (1.0E-05 M); 103 % of control at CSF1R (1.0E-06 M); 96 % of control on EPHA7 (1.0E-05 M); 85 % of control on EPHA7 (1.0E-06 M). Further, the Residual activity at LIMK2 (1.0E-05 M) is reported as 93 % of control; at LIMK2 (1.0E-06 M), 98 % of control; at MAP4K2 (1.0E-05 M) it was 93 % of control; at MAP4K2 (1.0E-06 M) it was 95 % of control; at PDGFRalpha (1.0E-05 M), 92 % of control; on PDGFRalpha (1.0E-06 M) it was 96 % of control. For the same compound, the Residual activity is listed as 97 % of control at TRKC (1.0E-05 M), 112 % of control at TRKC (1.0E-06 M), 113 % of control at TTBK2 (1.0E-05 M) and 105 % of control at TTBK2 (1.0E-06 M).
